Source: patent US4771068A, “Mitomycin derivatives having anti-tumor and antibacterial utility” (priority 1985, dated 1988)
Converted amounts (≈) assume the structure as drawn.

Legend:
peripheral leucocytes = assay: Effect on the peripheral leucocytes number; assay type: in vivo, mouse (ddY strain); conditions: minimum dose reducing peripheral leucocytes number to 4000/mm^3; tumour-carrying ddY mice, intraperitoneal, 4 days after administration
Description: WBC4000 : Minimum dose of a test compound which reduces the
peripheral leucocytes number to 4000/mm^3.
Sarcoma 180 solid tumour cells (5×10^6) were subcutaneously implanted into the right axilla of each mouse (body weight 20±2 g) of a group consisting of 5 male mice (ddY strain). 24 hours after implantation,a test compound was intraperitoneally administered to each animal. 4 days after the administration, blood (each 0.02 ml) was collected from the suborbital plexus vein of each tumour-carrying animal. The collected sample of blood was dispersed in 9.98 ml of Cell-Kit Seven solution. One drop of saponin solution was added to the sample to dissolve erythrocytes and then a microcell counter was used to count the number of leucocytes. […] The relationship between the number of peripheral leucocytes and the dose of the test compound was plotted and the dose (i.e., WBC4000) corresponding to 4000 peripheral leucocytes/mm^3 (about half the number of leucocytes of normal mice) was obtained.

[1] = system: Staphylococcus aureus ATCC 6538P; assay: Antibacterial activity (minimum growth inhibitory concentration), agar dilution method; assay type: cell-based; conditions: ATCC6538P, pH 7.0, agar dilution method, read-out: minimum growth inhibitory concentration, SA
Description: (§1) Antibacterial activities of Compounds (I) against various bacteria are shown by the minimum growth inhibitory concentration (μg/ml) in Table 3. The minimum growth inhibitory concentration was measured at pH 7.0 according to the agar dilution method. In the table, bacteria are indicated by the following letters.
SA: Staphylococcus aureus ATCC 6538P

Acute toxicity = conditions: mouse, in vivo, ip; ddY mice, intraperitoneally once, 14 days observation
Description: Each animal of the test group consisting of 5 ddY mice was administered intraperitoneally once with a test compound. […] The LD50 was determined by Beherns Kaerber's method.

Sarcoma 180 solid tumour = assay: animal or person; conditions: for CIc: CI of test compound divided by CI of mitomycin C as control in the same condition; for ED50: Mus musculus, Sarcoma-180, iv, 168 h; for CI (LD50/ED50): chemotherapeutic index
Source text: CIc : Value given by division of CI of each test compound by CI of
determination of antitumour activity of the test compound. A CIc
5×10^6 cells of Sarcoma 180 solid tumour were intraperitoneally implanted into ddY mice. 7 days later, ascites cells were sampled. The cells were washed once with a sterilized physiological sodium chloride solution and were used to prepare a cell suspension containing 5×10^7 cells per ml with a sterilized physiological sodium chloride solution. On each occasion, 0.1 ml of the cell suspension was subcutaneously implanted into the right axilla of a male mouse (ddY strain; body weight 20±2 g).
The anti-tumour activity was determined in the following manner. 7 days after the implantation, the major axis (a) and the minor axis (b) of the tumour were measured to calculate a value of "a×b^2 /2" which corresponds to the volume of the tumour. The anti-tumour activity was expressed by the ratio (T/C) of the volume (T) of the tumours of the group of animals administered with the test compound to the corresponding volume (C) of tumours of the untreated animals.
On graph paper, T/C was indicated by an arithmetic scale on the longitudinal axis and the administered amount of the test compound was indicated by a logarithmic scale on the lateral axis.

[2] = system: Proteus vulgalis ATCC 6897; assay: Antibacterial activity (minimum growth inhibitory concentration), agar dilution method; assay type: cell-based; conditions: pH 7, read-out: minimum growth inhibitory concentration, PV
Description: as §1
PV: Proteus vulgalis ATCC 6897

[3] = system: Streptococcus faecalis ATCC 10541; assay: as above; assay type: cell-based; conditions: Enterococcus faecalis, ATCC10541; Streptococcus faecalis ATCC 10541, pH 7.0, agar dilution method; read-out: minimum growth inhibitory concentration, SF
Description: as §1
SF: Streptococcus faecalis ATCC 10541

[4] = system: Klebsiella pneumoniae ATCC 10031; assay: as above; assay type: cell-based; conditions: ATCC10031; Klebsiella pneumoniae ATCC 10031, pH 7.0, agar dilution method; read-out: minimum growth inhibitory concentration, KP
Description: as §1
KP: Klebsiella pneumoniae ATCC 10031

Bacillus subtilis 10707 = assay: as above; assay type: cell-based; conditions: Bacillus subtilis 10707, pH 7.0, agar dilution method; read-out: minimum growth inhibitory concentration, BS
Description: as §1
BS: Bacillus subtilis 10707

Structure (SMILES)	WBC4000 (peripheral leucocytes) [mg/kg]	MIC [1] [µg/mL]	LD50 at 336 h (Acute toxicity) [mg/kg]	CIc (Sarcoma 180 solid tumour)	ED50 (Sarcoma 180 solid tumour) [mg/kg]	CI (LD50/ED50) (Sarcoma 180 solid tumour)	MIC [2] [µg/mL]	MIC [3] [µg/mL]	MIC [4] [µg/mL]	MIC (Bacillus subtilis 10707) [µg/mL]
CCC(=O)SCCNC1=C(C)C(=O)C2=C(C1=O)[C@@H](COC(N)=O)[C@@]1(OC)[C@H]3N[C@H]3CN21 [Compound 5]	> 5	< 0.02	4.7	0.59	5	0.94	1.3 (≈ 2.89 µM)	< 0.02	0.31 (≈ 0.688 µM)	< 0.02
CCC(=O)SCCNC1=C(C)C(=O)C2=C(C1=O)[C@H](COC(N)=O)[C@@]1(O)[C@@H]3[C@H](CN21)N3C (stereo partly shown) [Compound 6]	–	13 (≈ 28.9 µM)	–	–	–	–	100 (≈ 222 µM)	13 (≈ 28.9 µM)	25 (≈ 55.5 µM)	0.78 (≈ 1.73 µM)
CO[C@@]12[C@H](COC(N)=O)C3=C(C(=O)C(C)=C(NCCCCCCCCSC(C)=O)C3=O)N1C[C@@H]1N[C@@H]12 [Compound 12]	19.6	0.31 (≈ 0.595 µM)	45	1.3	9.7	4.6	5 (≈ 9.6 µM)	5 (≈ 9.6 µM)	1.3 (≈ 2.5 µM)	0.31 (≈ 0.595 µM)
CC1=C(NCCSC(=O)c2ccccc2)C(=O)C2=C(C1=O)N1C[C@H]3[C@H](N3C)[C@]1(O)[C@H]2COC(N)=O (stereo partly shown) [Compound 14]	–	> 100	–	–	–	–	–	50 (≈ 100 µM)	> 100	0.39 (≈ 0.782 µM)
C=C1C2=C(C(=O)C(C)=C(NCCSC(=O)c3ccccc3)C2=O)N2C[C@H]3[C@H](N3C)[C@]12O (stereo partly shown) [Compound 15]	27.5	25 (≈ 57.1 µM)	≥ 50	≥ 0.74	27.5	≥ 1.8	25 (≈ 57.1 µM)	> 100	50 (≈ 114 µM)	1.6 (≈ 3.66 µM)
CO[C@@]12[C@H](COC(N)=O)C3=C(C(=O)C(C)=C(NCCSC(=O)c4ccccc4)C3=O)N1C[C@H]1[C@@H]2N1C (stereo partly shown) [Compound 16]	–	0.16 (≈ 0.312 µM)	–	–	–	–	> 40	0.63 (≈ 1.23 µM)	10 (≈ 19.5 µM)	0.078 (≈ 0.152 µM)
CO[C@@]12[C@H](COC(N)=O)C3=C(C(=O)C(C)=C(NCCCCCCSC(=O)c4ccccc4)C3=O)N1C[C@@H]1N[C@@H]12 [Compound 17]	32.2	0.63 (≈ 1.14 µM)	> 50	> 1.7	9.5	> 5.3	> 40	2.5 (≈ 4.51 µM)	10 (≈ 18 µM)	0.16 (≈ 0.288 µM)
CO[C@@]12[C@H](COC(N)=O)C3=C(C(=O)C(C)=C(NCCSC(=O)c4ccc(F)cc4)C3=O)N1C[C@@H]1N[C@@H]12 [Compound 18]	5	< 0.02	6	1.2	1.6	3.8	10 (≈ 19.4 µM)	0.16 (≈ 0.31 µM)	5 (≈ 9.68 µM)	< 0.02
CC1=C(NCCSC(=O)c2ccc(F)cc2)C(=O)C2=C(C1=O)N1C[C@H]3[C@H](N3C)[C@]1(O)[C@H]2COC(N)=O (stereo partly shown) [Compound 19, 7-N-[2-(4-fluorobenzoylthio)ethyl]mitomycin D]	19.1	6.3 (≈ 12.2 µM)	15	0.89	5.6	2.7	–	100 (≈ 194 µM)	–	1.6 (≈ 3.1 µM)
CO[C@@]12[C@H](COC(N)=O)C3=C(C(=O)C(C)=C(NCCCCCCCCSC(=O)c4ccc(F)cc4)C3=O)N1C[C@@H]1N[C@@H]12 [Compound 20]	13.0	0.63 (≈ 1.05 µM)	62.5	1.6	16.3	3.8	> 40	0.63 (≈ 1.05 µM)	40 (≈ 66.6 µM)	0.31 (≈ 0.516 µM)
CC1=C(NCCSC(=O)c2ccc(Br)cc2)C(=O)C2=C(C1=O)N1C[C@H]3[C@H](N3C)[C@]1(O)[C@H]2COC(N)=O (stereo partly shown) [Compound 22]	–	0.39 (≈ 0.675 µM)	–	–	–	–	–	25 (≈ 43.3 µM)	> 100	< 0.049
COc1ccc(C(=O)SCCNC2=C(C)C(=O)C3=C(C2=O)[C@@H](COC(N)=O)[C@@]2(OC)[C@H]4N[C@H]4CN32)cc1 [Compound 23]	5	< 0.02	6.3	0.81	2.5	2.5	10 (≈ 18.9 µM)	0.16 (≈ 0.303 µM)	5 (≈ 9.46 µM)	< 0.02
COc1ccc(C(=O)SCCNC2=C(C)C(=O)C3=C(C2=O)[C@H](COC(N)=O)[C@@]2(O)[C@@H]4[C@H](CN32)N4C)cc1 (stereo partly shown) [Compound 24]	25.5	1.6 (≈ 3.03 µM)	27.5	1.3	7.2	3.8	–	100 (≈ 189 µM)	–	1.6 (≈ 3.03 µM)
CC1=C(NCCSC(=O)c2ccc([N+](=O)[O-])cc2)C(=O)C2=C(C1=O)N1C[C@H]3[C@H](N3C)[C@]1(O)[C@H]2COC(N)=O (stereo partly shown) [Compound 25]	15.9	3.1 (≈ 5.7 µM)	33.8	1.6	6.9	4.9	> 100	13 (≈ 23.9 µM)	13 (≈ 23.9 µM)	0.39 (≈ 0.717 µM)
C=C1C2=C(C(=O)C(C)=C(NCCSC(C)=S)C2=O)N2C[C@H]3[C@H](N3C)[C@]12O (stereo partly shown) [Compound 29]	–	3.1 (≈ 7.92 µM)	–	–	–	–	13 (≈ 33.2 µM)	> 100	25 (≈ 63.9 µM)	1.6 (≈ 4.09 µM)
CO[C@@]12[C@H](COC(N)=O)C3=C(C(=O)C(C)=C(N)C3=O)N1C[C@@H]1N[C@@H]12 [MMC, mitomycin C, reference compound]	2.4 to 6.1	–	–	1	–	–	–	–	–	–
